Experimental data reported in patent US20060228405A1, “Phospholipid-based pharmaceutical formulations and methods for producing and using same” (Conforma Therapeutics Corporation, priority 2005, published 2006).

Assays:
[1] = mean +/- SD; cited from earlier work
[2] = tested on: tail vein; experiment: Intravenous injection and tolerance, tail vein injection into mice; format: in vivo; details: phospholipid dispersion
Procedure: (§1) Pharmacokinetics for the solution formulation and the dispersion formulation were very similar. The method of the invention was also used to prepare dispersion formulations with the hydrochloride and phosphate salts of Compound 237. […] Dispersion formulations were also prepared using water soluble and slightly water soluble derivatives of geldanamycin. Specifically, similar dispersions containing DMAG were similarly formulated and well-tolerated upon tail vein injection into mice and rats.

[3] = tested on: rat tail vein; experiment: Intravenous injection and tolerance, rat tail vein; format: in vivo; details: phospholipid dispersion; rats
Procedure: as §1

[4] = Solvent stability of low melt form of 17-AAG slurried in H2O:EtOH (90:10); format: physicochemical; details: crystals slurried in H2O:EtOH (90:10)
Procedure: 17-AAG may be prepared from geldanamycin via reaction with allyamine in dry THF under a nitrogen atmosphere. The crude product may be purified by slurrying in H2O:EtOH (90:10), and the washed crystals obtained have a melting point of 206-212° C. by capillary melting point technique. A second product of 17-AAG can be obtained by dissolving and recrystallizing the crude product from 2-propyl alcohol (isopropanol). This second 17-AAG product has a melting point between 147-153° C. by capillary melting point technique. […] See Examples 1-2 for details of the preparation of the two polymorphic forms of 17-AAG. In addition to the high melt and low melt forms, it is well known that 17-AAG has an amorphous form.
The 17-AAG product from Example 2 was dissolved in 400 mL of H2O:EtOH (90:10) at 25° C. Filltration followed by aging at 45° C. for 8 hr gave […] (68.6 mmol) of 17-AAG as purple crystals (95% yield, >99% pure by HPLC monitored at 254 nm). m.p.=[…]. ^1H NMR and HPLC are consistent with the desired product.

C=CCNC1=C2C[C@@H](C)C[C@H](OC)[C@H](O)[C@@H](C)/C=C(\C)[C@H](OC(N)=O)[C@@H](OC)/C=C\C=C(/C)C(=O)NC(=CC1=O)C2=O [Compound 17-AAG, 17-allylamino-17-desmethyl-geldanamycin]
steady-state volume [1]: 86.6+34.6 L/m^2

CO[C@H]1/C=C\C=C(/C)C(=O)NC2=CC(=O)C(NCCN(C)C)=C(C[C@@H](C)C[C@H](OC)[C@H](O)[C@@H](C)/C=C(\C)[C@@H]1OC(N)=O)C2=O [DMAG, 17-N,N-dimethylaminoethylaminogeldanamycin]
tolerance upon tail vein injection [2]: well-tolerated
tolerance upon tail vein injection [3]: well-tolerated

C=CCNC1=C2C[C@@H](C)C[C@H](OC)[C@H](O)[C@@H](C)/C=C(\C)[C@H](OC(N)=O)[C@@H](OC)/C=C\C=C(/C)C(=O)NC(=CC1=O)C2=O [low melt form of 17-AAG, 17-allylamino-17-desmethyl-geldanamycin]
conversion of low melt form to high melt form [4]: no conversion to the high melt form was observed
